*1 amine or outer side, *2 acyl side, *3 side chain or, on linkers, in order; H or OH if unused. Where a SMILES comes first, the peptide text is derived from it. Bridges are numbered along the chain shown (N, C = ends). The star is where a group is joined. C20 diacid = O=C(O)CCCCCCCCCCCCCCCCCCC(=O)*; γGlu = O=C(O)[C@H](CCC(=O)[*:2])N[*:1]; AEEA = NCCOCCOCC(=O)O
Legend:
[1] = Assay (V) PK - determination of T½ in mini-pig; type: in vivo; details: minipig, sc; terminal plasma half-life, subcutaneous, approx 2 nmol/kg, male Göttingen mini-pigs
Protocol: Assay (V) PK—Determination OF T½ in Mini-Pig
T½ is the terminal half-life=ln 2/λz of a compound in plasma. λz is the first order rate constant associated with the terminal (log-linear) portion of the plasma concentration-time curve and is estimated by linear regression of time vs. log concentration.
T½ values of the amylin analogues of the invention is determined by pharmacokinetic studies in male Göttingen mini-pigs from Ellegaard Göttingen Minipigs ApS and the principles of laboratory animal care are followed.
An acclimatization period of approximately 6-10 days was allowed before the animals entered the study. At start of the acclimatization period the mini-pigs were about 5 to 12 months old and in the weight range of 7-35 kg. The mini-pigs had two central venous catheters inserted which were used for blood sampling.
The studies were conducted in an animal room which was illuminated to give a cycle of approx 12 hours light and 12 hours darkness. The animals were housed individually.
The animals had free access to domestic quality drinking water during the study, but were typically fasted from overnight before dosing until approx 6-12 hours after dosing. The animals were weighed on arrival and on the days of dosing.
In the present studies the test substances were administered subcutaneously in approx 2 nmol/kg dose. The animals received a single subcutaneous injection. The subcutaneous injection was given on the right side of the neck, approximately 5-7 cm from the ear and 7-9 cm from the middle of the neck. The injections were given with a stopper on the needle, allowing approx 0.5 cm of the needle to be introduced. Each test substance was given to typically three but in some cases two or four animals.
A full plasma concentration-time profile, employing 12-16 sampling points, was obtained from each animal. In example blood samples were collected according to the following schedule:
After subcutaneous administration:
Predose (0), 0.5, 1, 2, 4, 6, 8, 12, 24, 48, 72, 96, 120, 168 and 240 hours after injection. In some cases also additional blood samples up to 288 hours post injection were taken.
At each sampling time, 0.5 to 2 ml of blood was drawn from each animal. The blood samples were taken via the central venous catheter.
The blood samples were collected into EDTA test tubes (i.e. Sarstedt Micro tube 1.3 mL K3E). Blood samples were kept on ice for max 20 min. before centrifugation. Plasma was separated using centrifugation (i.e. at 4° C., 10 min., 1500 G) and was immediately transferred to Micronic tubes. Approximately 200 μl plasma was transferred to each Micronic tube. The plasma was stored at −20° C. until assayed. The plasma samples were assayed for the content of amylin using an ELISA assay.
The plasma concentration-time profiles were analysed by a non-compartmental pharmacokinetic analysis (NCA) using WinNonlin Professional 5.0 (Pharsight Inc., Mountain View, Calif., USA). NCA was performed using the individual plasma concentration-time profiles from each animal. T½ is the terminal half-life=ln 2/λz and was determined from λz, the first order rate constant associated with the terminal (log-linear) portion of the curve, estimated by linear regression of time vs. log concentration.
ELISA Plasma Assay for Amylin Quantification
The human amylin ELISA is a monoclonal antibody-based sandwich immunoassay for determining amylin levels in human plasma. The capture antibody recognizes human amylin, amylin acid (deamidated amylin), a 1-20 fragment of amylin, but not reduced amylin.
The detection antibody binds to reduced or unreduced human amylin but not amylin acid and is complexed with streptavidin-alkaline phosphatase. The substrate, 4-methylumbelliferyl phosphate, is applied to the completed sandwich and the fluorescent signal, monitored at 355 nm/460 nm, is proportional to the amount of amylin present in the sample.

[2] = biological target: T1, Amylin 3(a) receptor (human calcitonin receptor (CTa) and RAMP-3) (Homo sapiens, UniProt O60896+P30988); assay: Luciferase assay (III), BHK Amylin 3(a)//CRE-luc cells; type: cell-based; details: BHK cells with Amylin 3(a) receptor and CRE luciferase reporter, 4 hours incubation; read-out: Potency Luciferase
T1 construct: expressed in transfected cells; host or cells: BHK570 cells, stably transfected with a CRE-luciferase reporter
In short: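 Read-out is CRE-driven luciferase luminescence, taken 30 min after LucLite addition at room temperature. Compounds were incubated 4 h at 37° C in assay medium (10% FBS, 10 mM Hepes, pH 7,4). The cell line is BHK570 co-transfected with human calcitonin receptor CTa and RAMP-3, seeded overnight before use.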

T1 sequence (O60896 24-148): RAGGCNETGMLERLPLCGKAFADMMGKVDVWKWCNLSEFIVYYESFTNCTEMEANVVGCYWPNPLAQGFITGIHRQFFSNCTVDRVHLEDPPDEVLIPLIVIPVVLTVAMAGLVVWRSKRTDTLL
T1 sequence (P30988 25-474): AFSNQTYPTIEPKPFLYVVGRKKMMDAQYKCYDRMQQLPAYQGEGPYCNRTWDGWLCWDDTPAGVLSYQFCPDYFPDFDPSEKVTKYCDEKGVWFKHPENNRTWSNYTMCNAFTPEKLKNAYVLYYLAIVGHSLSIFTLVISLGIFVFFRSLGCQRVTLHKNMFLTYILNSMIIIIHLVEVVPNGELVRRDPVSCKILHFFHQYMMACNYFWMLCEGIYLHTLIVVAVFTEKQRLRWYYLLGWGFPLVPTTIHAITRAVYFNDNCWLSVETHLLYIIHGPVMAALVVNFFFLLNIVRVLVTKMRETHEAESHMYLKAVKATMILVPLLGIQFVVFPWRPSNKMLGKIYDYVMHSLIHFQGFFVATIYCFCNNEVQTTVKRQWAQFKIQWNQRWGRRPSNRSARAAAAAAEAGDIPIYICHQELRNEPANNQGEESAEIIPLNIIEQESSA

Row | half-life [1] | EC50 [2] | SMILES
1 | 38 h | 200 pM | CC[C@H](C)[C@H](NC(=O)[C@@H]1CCCN1C(=O)CNC(=O)[C@H](Cc1ccccc1)NC(=O)[C@H](CC(N)=O)NC(=O)[C@H](CC(N)=O)NC(=O)[C@H](CO)NC(=O)[C@H](CO)NC(=O)[C@H](Cc1c[nH]cn1)NC(=O)[C@H](Cc1c[nH]cn1)NC(=O)[C@H](CC(C)C)NC(=O)[C@H](Cc1ccccc1)NC(=O)[C@H](CC(N)=O)NC(=O)[C@H](C)NC(=O)[C@H](CC(C)C)NC(=O)[C@H](CCCNC(=N)N)NC(=O)[C@H](CCC(N)=O)NC(=O)[C@@H](NC(=O)[C@H](C)NC(=O)[C@@H]1CSSC[C@H](NC(=O)[C@H](CCCNC(=N)N)NC(=O)[C@H](CCCNC(=N)N)NC(=O)[C@H](Cc2c[nH]cn2)NC(=O)[C@H](CCC(=O)O)NC(=O)CC[C@H](NC(=O)CCCCCCCCCCCCCCCCCCC(=O)O)C(=O)O)C(=O)N[C@@H](CC(N)=O)C(=O)N[C@@H]([C@@H](C)O)C(=O)N[C@@H](C)C(=O)N[C@@H]([C@@H](C)O)C(=O)N1)[C@@H](C)O)C(=O)N[C@@H](CC(C)C)C(=O)N1CCC[C@H]1C(=O)N1CCC[C@H]1C(=O)N[C@H](C(=O)N[C@@H](CC(N)=O)C(=O)N[C@H](C(=O)NCC(=O)N[C@@H](CO)C(=O)N[C@@H](CC(N)=O)C(=O)N[C@H](C(=O)N[C@@H](Cc1ccc(O)cc1)C(N)=O)[C@@H](C)O)C(C)C)[C@@H](C)O [Example 55, N-alpha-[(S)-4-Carboxy-4-(19-carboxynonadecanoylamino)butyryl]-Glu-His-Arg-[Arg1,His17]-pramlintide] ({C20 diacid-γGlu}-EHRRCNTATCATQRLANFLHHSSNNFGPILPPTNVGSNTY-NH2; disulfide 5-10)
2 | 31 h | 100 pM | CC[C@H](C)[C@H](NC(=O)[C@@H]1CCCN1C(=O)CNC(=O)[C@H](Cc1ccccc1)NC(=O)[C@H](CC(N)=O)NC(=O)[C@H](CC(N)=O)NC(=O)[C@H](CO)NC(=O)[C@H](CO)NC(=O)[C@H](Cc1c[nH]cn1)NC(=O)[C@H](Cc1c[nH]cn1)NC(=O)[C@H](CC(C)C)NC(=O)[C@H](Cc1ccccc1)NC(=O)[C@H](CC(N)=O)NC(=O)[C@H](C)NC(=O)[C@H](CC(C)C)NC(=O)[C@H](CCCNC(=N)N)NC(=O)[C@H](CCC(N)=O)NC(=O)[C@@H](NC(=O)[C@H](C)NC(=O)[C@@H]1CSSC[C@H](NC(=O)[C@H](CCCCN)NC(=O)[C@H](CCCNC(=N)N)NC(=O)[C@H](Cc2c[nH]cn2)NC(=O)CC[C@H](NC(=O)CCCCCCCCCCCCCCCCCCC(=O)O)C(=O)O)C(=O)N[C@@H](CC(N)=O)C(=O)N[C@@H]([C@@H](C)O)C(=O)N[C@@H](C)C(=O)N[C@@H]([C@@H](C)O)C(=O)N1)[C@@H](C)O)C(=O)N[C@@H](CC(C)C)C(=O)N1CCC[C@H]1C(=O)N1CCC[C@H]1C(=O)N[C@H](C(=O)N[C@@H](CC(N)=O)C(=O)N[C@H](C(=O)NCC(=O)N[C@@H](CO)C(=O)N[C@@H](CC(N)=O)C(=O)N[C@H](C(=O)N[C@@H](Cc1ccc(O)cc1)C(N)=O)[C@@H](C)O)C(C)C)[C@@H](C)O [Example 40, N-alpha-[(S)-4-Carboxy-4-(19-carboxynonadecanoylamino)butyryl]-His-Arg-[His17]-pramlintide] ({C20 diacid-γGlu}-HRKCNTATCATQRLANFLHHSSNNFGPILPPTNVGSNTY-NH2; disulfide 4-9)
3 | 53 h | 100 pM | CC[C@H](C)[C@H](NC(=O)[C@@H]1CCCN1C(=O)CNC(=O)[C@H](Cc1ccccc1)NC(=O)[C@H](CC(N)=O)NC(=O)[C@H](CC(N)=O)NC(=O)[C@H](CO)NC(=O)[C@H](CO)NC(=O)[C@H](Cc1c[nH]cn1)NC(=O)[C@H](Cc1c[nH]cn1)NC(=O)[C@H](CC(C)C)NC(=O)[C@H](Cc1ccccc1)NC(=O)[C@H](CC(N)=O)NC(=O)[C@H](C)NC(=O)[C@H](CC(C)C)NC(=O)[C@H](CCCNC(=N)N)NC(=O)[C@H](CCC(N)=O)NC(=O)[C@@H](NC(=O)[C@H](C)NC(=O)[C@@H]1CSSC[C@H](NC(=O)[C@H](Cc2c[nH]cn2)NC(=O)[C@H](Cc2c[nH]cn2)NC(=O)[C@H](Cc2c[nH]cn2)NC(=O)[C@H](CCC(=O)O)NC(=O)CC[C@H](NC(=O)CCCCCCCCCCCCCCCCCCC(=O)O)C(=O)O)C(=O)N[C@@H](CC(N)=O)C(=O)N[C@@H]([C@@H](C)O)C(=O)N[C@@H](C)C(=O)N[C@@H]([C@@H](C)O)C(=O)N1)[C@@H](C)O)C(=O)N[C@@H](CC(C)C)C(=O)N1CCC[C@H]1C(=O)N1CCC[C@H]1C(=O)N[C@H](C(=O)N[C@@H](CC(N)=O)C(=O)N[C@H](C(=O)NCC(=O)N[C@@H](CO)C(=O)N[C@@H](CC(N)=O)C(=O)N[C@H](C(=O)N[C@@H](Cc1ccc(O)cc1)C(N)=O)[C@@H](C)O)C(C)C)[C@@H](C)O [Example 54, N-alpha-[(S)-4-Carboxy-4-(19-carboxynonadecanoylamino)butyryl]-Glu-His-His-[His1,His17]-pramlintide] ({C20 diacid-γGlu}-EHHHCNTATCATQRLANFLHHSSNNFGPILPPTNVGSNTY-NH2; disulfide 5-10)
4 | 31 h | 90 pM | CC[C@H](C)[C@H](NC(=O)[C@@H]1CCCN1C(=O)CNC(=O)[C@H](Cc1ccccc1)NC(=O)[C@H](CC(N)=O)NC(=O)[C@H](CC(N)=O)NC(=O)[C@H](CO)NC(=O)[C@H](CO)NC(=O)[C@H](Cc1c[nH]cn1)NC(=O)[C@H](Cc1c[nH]cn1)NC(=O)[C@H](CC(C)C)NC(=O)[C@H](Cc1ccccc1)NC(=O)[C@H](CC(N)=O)NC(=O)[C@H](C)NC(=O)[C@H](CC(C)C)NC(=O)[C@H](CCCNC(=N)N)NC(=O)[C@H](CCC(N)=O)NC(=O)[C@@H](NC(=O)[C@H](C)NC(=O)[C@@H]1CSSC[C@H](NC(=O)[C@H](CCCNC(=N)N)NC(=O)[C@H](Cc2c[nH]cn2)NC(=O)[C@H](Cc2c[nH]cn2)NC(=O)COCCOCCNC(=O)CC[C@H](NC(=O)CCCCCCCCCCCCCCCCCCC(=O)O)C(=O)O)C(=O)N[C@@H](CC(N)=O)C(=O)N[C@@H]([C@@H](C)O)C(=O)N[C@@H](C)C(=O)N[C@@H]([C@@H](C)O)C(=O)N1)[C@@H](C)O)C(=O)N[C@@H](CC(C)C)C(=O)N1CCC[C@H]1C(=O)N1CCC[C@H]1C(=O)N[C@H](C(=O)N[C@@H](CC(N)=O)C(=O)N[C@H](C(=O)NCC(=O)N[C@@H](CO)C(=O)N[C@@H](CC(N)=O)C(=O)N[C@H](C(=O)N[C@@H](Cc1ccc(O)cc1)C(N)=O)[C@@H](C)O)C(C)C)[C@@H](C)O [Example 56, N-alpha-[2-(2-{2-[4-(S)-Carboxy-4-(19-carboxynonadecanoylamino)butyrylamino]ethoxy}ethoxy)acetyl]-His-His-[Arg1,His17]-pramlintide] ({C20 diacid-γGlu-AEEA}-HHRCNTATCATQRLANFLHHSSNNFGPILPPTNVGSNTY-NH2; disulfide 4-9)

— patent publication US8895504B2, “Amylin derivatives” (priority 2008, dated 2014)
